The values that follow come from patent publication US7279582B2, “Retroviral protease inhibiting compounds” (priority 1995, dated 2007).

In one series the test system is uninfected MT4 cells. The series is classed as cell-based. The note with it: n=4 duplicate determinations, read-out: LC50 (the source's name). From the text: (§1) The anti-HIV activity of the compound of the invention can be determined in MT4 cells according to the following procedure. MT4 cells were infected with cell-free supernatant of HIVIIIB (previously frozen with known 50% tissue culture infectious dose (TCID50) at 0.003 multiplicity of infection (MOI) for one hour. After one hour infection, cells were washed twice to remove residual viruses, resuspended in culture media and seeded into 96-well tissue culture plates at 1×10^4 cells per well with various half-log dilutions of compounds. Uninfected cells are included as toxicity and cell controls. RPMI 1640 media (Gibco) with 10% fetal bovine serum were used as culture media. Various concentrations of human serum (Sigma) 50%, 25% and 12.5% were added to culture media resulting in final concentration of 60%, 35% and 22.5% total serum. All assay plates were incubated in 37 deg. cent. incubator for 5 days. MTT (sigma, 5 mg/ml stock in PBS) was added to all wells at 25 ul per well, incubate for 4 hours. 20% SDS with 0.02 N HCI in water was added at 50 ul per well to lyse cells. Plates incubated overnight for complete lyses were read on a microtitre plate reader at 570/650 nm wavelengths to determine cell optical density (O.D.). Raw data were analysed for percent inhibition by the following formula: O.D. test well−O.D. virus control×100 O.D. cell control−O.D. virus control The 50% effective concentration (EC50) was calculated by the median effect equation (Chou, 1975, Proc. Int. Cong. Pharmacol. 6th p. 619) to determine the efficacy of compound. The 50% lethal concentration (LC50) was calculated using uninfected MT4 cells.
(§2) Under these conditions, the following data were obtained (n=4 duplicate determinations: […]

The target of another series is HIV protease (Human immunodeficiency virus type 1 group M subtype B, UniProt P04585). Put plainly: Fluorogenic assay for screening inhibitors of HIV protease. Type of series: biochemical. Particulars: Inhibitor Concentration 0.5 nanomolar. The procedure: Fluorogenic Assay for Screening Inhibitors of HIV Protease
The inhibitory potency of the compound of the invention can be determined by the following method.
The compound of the invention is dissolved in DMSO and a small aliquot further diluted with DMSO to 100 times the final concentration desired for testing. The reaction is carried out in a 6×50 mm tube in a total volume of 300 microliters. The final concentrations of the components in the reaction buffer are: 125 mM sodium acetate, 1 M sodium chloride, 5 mM dithiothreitol, 0.5 mg/ml bovine serum albumin, 1.3 μM fluorogenic substrate, 2% (v/v) dimethylsulfoxide, pH 4.5. After addition of inhibitor, the reaction mixture is placed in the fluorometer cell holder and incubated at 30° C. for several minutes. The reaction is initiated by the addition of a small aliquot of cold HIV protease. The fluorescence intensity (excitation 340 nm, emmision 490 nM) is recorded as a function of time. The reaction rate is determined for the first six to eight minutes. The observed rate is directly proportional to the moles of substrate cleaved-per unit time. The percent inhibition is 100×(1−(rate in presence of inhibitor)/(rate in absence of inhibitor)).
Fluorogenic substrate: Dabcyl-Gaba-Ser-Gln-Asn-Tyr-Pro-lle-Val-Gln-EDANS wherein DABCYL=4-(4-dimethylamino-phenyl)azobenzoic acid, Gaba=γ-aminobutyric acid, and EDANS=5-((2-aminoethyl)amino)-naphthalene-1-sulfonic acid.

In another series the test system is HIVIIIB. Put plainly: Anti-HIV activity in MT4 cells infected with HIVIIIB (MTT readout). Type of series: cell-based. Particulars: 0% plasma, 5 days, n=4 duplicate determinations.
Description: as §1, §2

As usually defined, the IC50 is the concentration that inhibits the measured activity by half. A low value points to inhibition by little substance.

On to `Cc1cc(N)cc(C)c1OCC(=O)N[C@@H](Cc1ccccc1)[C@@H](O)C[C@H](Cc1ccccc1)NC(=O)[C@H](C(C)C)N1CCNC1=O` [Example 10F, (2S,3S,5S)-2-(4-Amino-2,6-dimethylphenoxyacetyl)amino-3-hydroxy-5-(2S-(1-imidazolidin-2-onyl)-3-methyl-butanoyl)amino-1,6-diphenylhexane], for which the CC50 in the series on uninfected MT4 cells was 92000 nM. In addition, at HIV protease, the “Percent Inhibition” value amounted to 81.0%. This compound yielded an IC50 in the series on HIVIIIB of 0.047 µM.
For `Cc1ccnc(C)c1OCC(=O)N[C@@H](Cc1ccccc1)[C@@H](O)C[C@H](Cc1ccccc1)NC(=O)[C@H](C(C)C)N1CCNC1=O` [Example 15, (2S,3S,5S)-2-(2,4-Dimethyl-pyridin-3-oxy-acetyl)amino-3-hydroxy-5-(2S-(1-imidazolidin-2-onyl)-3-methyl-butanoyl)amino-1,6-diphenylhexane], in that order: > 100000 nM, 48% and 0.119 µM.
